Patent US9974755B2, “Induced expression of brain derived neurotrophic factor (BDNF) for treatment of neuromuscular, neurodegenerative, autoimmune, developmental and/or metabolic diseases” (Mitochon Pharmaceuticals, Inc., priority 2015, dated 2018)
“Also recorded” adds a separate entry of the source.

Experiments:
BDNF [1] = assay: BDNF mRNA in brain by semi quantitative PCR after two weeks daily oral gavage; assay type: in vivo, Wildtype C57BL/6J mice; conditions: FIG. 1
Procedure: As described herein below, mitochondrial uncoupler DNP was tested in a range of doses in mice from 0.5 mg/kg of DNP to 10 mg/kg of DNP under oral chronic treatment to titrate the amount of drug in the brain required to induce increases of BDNF endogenously within the brain. […] Therefore, it was discovered that there is a specific and limited dose range of DNP that is necessary to achieve statistically significant survival and behavioral benefit for a host of diseases that benefit from increased BDNF levels. […]

BDNF [2] = assay: BDNF protein levels by immunoblot in the EAE mouse model of MS; assay type: in vivo; conditions: for Intensity of the BDNF band (immunoblot): lumbal spinal cord, Day 42, treated Day 7 to Day 21, FIG. 2a
Description: The tissue was taken on Day 42 of the study during the recovery phase from the lumbal spinal cord of representative mice that were immunized on Day 1 with the MOG peptide, then treated with MP101 starting on Day 7 and stopping on Day 21. […] Untreated animals are shown as naïve. The changes in BDNF levels are therefore 3-weeks post-treatment with DNP (aka MP101).

[3] = test system: Experimental Autoimmune Encephalomyelitis (EAE); assay: Clinical scores in the EAE mouse model of MS; assay type: in vivo; conditions: FIG. 2c
[4] = test system: Experimental Autoimmune Encephalomyelitis (EAE); assay: Spinal cord electron microscopy in the EAE mouse model of MS; assay type: in vivo; conditions: 5 mg/kg, Day-16 (peak of onset), vs placebo, FIG. 2d
Mecp2 mutant mice [5] = assay: Rotarod in Mecp2 mutant mice, a model of Rett Syndrome; assay type: in vivo, mouse; conditions: 8-weeks of age; 0.5, 1 and 5 mg/kg oral gavage vs mutant vehicle; FIG. 3a
Procedure: (§1) MP101 was tested in a model of Rett Syndrome using Mecp2 mutant mice. Rett Syndrome is a developmental disorder in young girls, with first symptoms starting at about 18-months of age, including reduced head growth. FIGS. 3a, 3b, 3c and 4 show the effects of treating these mutant mice with MP101 at 0.5, 1 mg/kg and 5 mg/kg by oral gavage.
In FIGS. 3a and 3b, Mecp2 mutant mice, a model of Rett Syndrome, were treated with MP101 (DNP) at 6-weeks of age and tested on their coordination to walk on a rotating cylinder (rotarod). Wildtype mice are used as a benchmark for general decline in behavior compared to Mecp2 mutant mice treated with Vehicle, 0.5 mg/kg MP101, 1 mg/kg MP101 and 5 mg/kg MP101 by oral gavage.

Mecp2 mutant mice [6] = assay: Clasping test in Mecp2 mutant mice; assay type: in vivo, mouse; conditions: 1 mg/kg, 12-weeks of age, 1-month oral gavage, FIG. 4
Procedure: as §1

APP/PS1 mice = assay: Morris Water Maze in APP/PS1 mice (Alzheimer's); assay type: in vivo, mouse; conditions: 0.5, 1 and 5 mg/kg oral gavage for 4-months vs Vehicle, FIGS. 5a-5c
Procedure: In addition, Alzheimer's Disease, representing about 70% of all dementia cases, was evaluated using the APP/PS1 mice, which express the APPswe mutation and PS1deltaE9 mutation and develop relatively rapid Aβ pathology and cognitive deficits. At 4-months of age, the APP/PS1 mice were treated for 4-months by oral gavage delivery with MP101 (DNP) at 0.5, 1 and 5 mg/kg. […] The amount of time spent in the quadrant is an indicator of whether the mice remember the general location, with increased time indicating increased memory.
The amount of time spent in the quadrant is an indicator of whether the subject remembers the general location.

wildtype mice = assay: Kanic acid model of epilepsy, seizure time; assay type: in vivo, mouse; conditions: FIG. 6
Procedure: DNP was also evaluated for a treatment of Epilepsy. The kanic acid model is an acute model of epilepsy caused by an injection in the right hippocampus of an analogue of glutamate (kanic acid) that over-stimulates the neurons causing death.

C57Bl/6 mice = assay: 6-OHDA dopaminergic degeneration, cylinder test in wildtype mice (Parkinson's); assay type: in vivo, mouse
Procedure: (§2) The merits of treating Parkinson's Disease with MP101 (DNP) was evaluated in wildtype mice and SIRT3 KO mice with 6-OHDA injections after two weeks of MP101 treatment. We examined the neuroprotective effects of varying MP-101 doses (0.5, 1, 5 mg/kg) against dopaminergic degeneration of nigrostriatal neurons induced by a single unilateral stereotaxic injection of neurotoxin 6-hydroxydopamine (6-OHDA) in the right striatum of the brain of 2-3 month old male C57Bl/6 mice or SIRT3 KO mice. SIRT3 KO is a model of a heightened sensitivity to glutamate-induced calcium overload and excitotoxicity, and oxidative and mitochondrial stress, therefore ideal for evaluating Parkinson's Disease, Huntington's Disease and temporal lobe epilepsy.
(§3) FIGS. 7a and 7b show the effects of DNP (MP101) treatment for 14-Days by oral gavage in protecting dopaminergic neuronal loss when the right striatum is injected with 6-OHDA after the last day.

SIRT3 KO mice = assay: 6-OHDA dopaminergic degeneration, rotarod in SIRT3 KO mice (Parkinson's); assay type: in vivo, mouse; conditions: 14-Days oral gavage, 6-OHDA in right striatum, FIG. 7b
Procedure: as §2, §3

N171-82Q HD mice [7] = assay: MRI brain volume in N171-82Q Huntington's Disease mice; assay type: in vivo, mouse; conditions: N171-82Q HD mice vs HD placebo
Procedure: (§4) MP101 (DNP) was used in a mouse model of Huntington's Disease, the “Fragment Model” N171-82 HD mice, to determine its neuroprotective effects. The N171-82 HD mice were treated with MP101 at 0.5, 1 and 5 mg/kg by oral gavage daily for greater than 17-weeks. At the age of 26-weeks (17-weeks of treatment), the mice were tested for changes in behavioral, loss of brain volume, spiny neurons and general neurons. FIGS. 8a, 8b, 8c, 8d, 8e, and 8f show the effects of DNP (MP101 drug treatment).
(§5) FIGS. 8a-8f show the effects of MP101 in the Huntington's Disease model N171-82Q after 13-weeks (age 22 weeks) and/or 17-weeks (age 26-weeks) of treatment with DNP.

N171-82Q HD mice [8] = assay: Neuronal biomarkers DARPP32 and PSD95 in N171-82Q HD mice; assay type: in vivo, mouse
Procedure: as §4, §5

N171-82Q HD mice [9] = assay: Tapered beam and balance beam motor function in N171-82Q HD mice; assay type: in vivo, mouse; conditions: after 17-weeks of treatment, FIG. 8f
Procedure: as §4, §5

[10] = acute single dose post-ischemia; cited from earlier work

O=[N+]([O-])c1ccc(O)c([N+](=O)[O-])c1 [DNP, 2,4-dinitrophenol]
BDNF levels in the brain at the highest dose compared with lower doses (BDNF [1]; 10.0 mg/kg daily oral gavage, bell-shaped curve): reduced level of BDNF compared with the next two lower doses; also recorded: less BDNF is expressed | BDNF levels in the brain (mRNA, delta-delta CT, percent change relative to placebo) (BDNF [1]; 0.5, 1.0, 5.0 and 10.0 mg/kg daily oral gavage): induce BDNF within the brain; also recorded: increases BDNF levels in the brain | Intensity of the BDNF band (immunoblot) (BDNF [2]; 0.5 mg/kg and 1 mg/kg vs placebo): increases | Intensity of the BDNF band (immunoblot) (BDNF [2]; 5 mg/kg): plateau effect | BDNF protein level 3-weeks post treatment (BDNF [2]; EAE model, after 2 weeks of treatment, FIG. 2b): statistically elevated level of BDNF protein; also recorded: BDNF levels are elevated in the brain; also recorded: lasting effect | Progression of the phenotype on clinical scores [3]: attenuation of disease progression | Myelin sheaths surrounding the axons and axons (electron microscopy) [4]: striking axonal protection | Myelin sheaths surrounding the axons and axons (electron microscopy) ([4]; listed as MP101): completely intact | Ability to walk on the rotarod (Mecp2 mutant mice [5]): fall less and can handle higher speeds of rotation | Clasping test (Mecp2 mutant mice [6]): shows an effect | Cognition / short term memory in Morris Water Maze (distance, time in quadrant, entries) (APP/PS1 mice): improved in short term memory | Cognition / short term memory in Morris Water Maze (distance, time in quadrant, entries) (APP/PS1 mice; listed as MP101): improved cognition | Seizure time after kanic acid injection (wildtype mice; 1, 5 and 10 mg/kg oral gavage for 2-weeks before injection): shortening of seizure time | Neural protection from over-stimulation by kanic acid (wildtype mice; 1, 5 and 10 mg/kg oral gavage for 2-weeks, relative to Vehicle): provided neural protection | Protection of dopaminergic neurons from 6-OHDA (C57Bl/6 mice; 0.5, 1, 5 mg/kg for two weeks, C57Bl/6 or SIRT3 KO mice, FIG. 7): protected the dopaminergic neurons | Percent of left and right paw touches on the wall (cylinder) (C57Bl/6 mice; wildtype mice, 14-Days oral gavage, 6-OHDA in right striatum, FIG. 7a): improved | Motor coordination on rotating cylinder (rotarod) (SIRT3 KO mice): improved motor coordination | Brain volume loss in the cortex (MRI) (N171-82Q HD mice [7]; FIG. 8b): minor loss | Brain volume loss in the striatum (MRI) (N171-82Q HD mice [7]; FIG. 8c): minor loss | Medium spiny neurons, biomarker DARPP32 (N171-82Q HD mice [8]; 26-weeks of age, FIG. 8d): preserves medium spiny neurons | General neuronal loss, postsynaptic protein PSD95 levels (N171-82Q HD mice [8]; N171-82Q HD mice, FIG. 8e): preserves general neuronal loss | Motor function in the balance beam (N171-82Q HD mice [9]): improves motor function | Motor function in the tapered beam (N171-82Q HD mice [9]): improves motor function | Infarct volume [10]: reduce infarct volume | ROSs species [10]: lower ROSs species
